Source: ChEMBL document CHEMBL5505987 (Eur J Med Chem, 2024)
The source made the active and inactive calls.

Columns and labels:
[1] = test system: MDA-MB-231; assay: Anti-tumor activity against human MDA-MB-231 cells assessed as change in TGF-beta1/Smad signaling pathway by measuring fluorescence intensity of p-Smad3 level at 2 to 4 uM after 24 hrs incubation by immunofluorescence staining assay; assay type: functional, cell-based; settings: dose 2-4 µM
[2] = test system: MDA-MB-231; assay: Anti-tumor activity against human MDA-MB-231 cells assessed as change in TGF-beta1/Smad signaling pathway by measuring fluorescence intensity of TGF-beta1 level at 2 to 4 uM after 24 hrs incubation by immunofluorescence staining assay; assay type: functional, cell-based; settings: dose 2-4 µM
[3] = test system: 4T1; assay: Induction of cell cycle arrest in mouse 4T1 cells assessed as accumulation of cells at G0/G1 phase at 1.5 uM measured after 24 hrs by PI staining by flow cytometry; assay type: functional
[4] = test system: MDA-MB-231; assay: Induction of apoptosis in human MDA-MB-231 cells assessed as increase in Bax expression at 1 to 4 uM incubated for 24 hrs by Western blotting analysis; assay type: functional, cell-based; settings: dose 1-4 µM
[5] = test system: MDA-MB-231; assay: Reduction of ATP level in human MDA-MB-231 cells incubated for 24 hrs by colorimetric based ATP Content Assay Kit; assay type: functional, cell-based; settings: dose 1-4 µM
[6] = test system: MDA-MB-231; assay: Anti-metastatic activity in human MDA-MB-231 cells assessed as decrease in vimentin protein level at 1 to 4 uM by Western blotting analysis; assay type: functional, cell-based; settings: dose 1-4 µM
[7] = test system: 4T1; assay: Induction of mitochondrial membrane potential loss in mouse 4T1 cells assessed as increase in fluorescence intensity by JC-1 monomer assay; assay type: functional, cell-based; settings: dose 2-4 µM
[8] = test system: MDA-MB-231; assay: Anti-metastatic activity in human MDA-MB-231 cells assessed as increase in E-cadherin protein level at 1 to 4 uM by Western blotting analysis; assay type: functional, cell-based; settings: dose 1-4 µM
[9] = test system: MDA-MB-231; assay: Induction of mitochondrial membrane potential loss in human MDA-MB-231 cells assessed as decrease in fluorescence intensity by JC-1 aggregate assay; assay type: functional, cell-based; settings: dose 2-4 µM
[10] = test system: MDA-MB-231; assay: Cytotoxicity against human MDA-MB-231 cells assessed as cell viability by MTT assay; assay type: functional, cell-based
[11] = test system: 4T1; assay: Cytotoxicity against mouse 4T1 cells assessed as cell viability by MTT assay; assay type: functional, cell-based
[12] = test system: 4T1; assay: Induction of apoptosis in mouse 4T1 cells assessed as increase in apoptotic rate incubated for 24 hrs in presence of SB-431542 TGF-beta signaling inhibitor by Annexin V-FITC/PI double staining by flow cytometry; assay type: functional, cell-based
[13] = test system: 4T1; assay: Induction of DNA damage in mouse 4T1 cells assessed as increase in gamma-H2AX focal expression at 2 to 4 uM by immunofluorescence staining assay; assay type: functional, cell-based; settings: dose 2-4 µM
[14] = test system: 4T1; assay: Induction of mitochondrial membrane potential loss in mouse 4T1 cells assessed as decrease in fluorescence intensity by JC-1 aggregate assay; assay type: functional, cell-based; settings: dose 2-4 µM
[15] = test system: MDA-MB-231; assay: Induction of apoptosis in human MDA-MB-231 cells assessed as increase in apoptotic rate at 1 uM incubated for 24 hrs by Annexin V-FITC/PI double staining by flow cytometry; assay type: functional
[16] = test system: 4T1; assay: Induction of cell cycle arrest in mouse 4T1 cells assessed as accumulation of cells at G0/G1 phase measured after 24 hrs in presence of SB-431542 TGF-beta signaling inhibitor by PI staining by flow cytometry; assay type: functional, cell-based
[17] = test system: MDA-MB-231; assay: Induction of apoptosis in human MDA-MB-231 cells assessed as increase in cleaved caspase 9 expression at 1 to 4 uM incubated for 24 hrs by Western blotting analysis; assay type: functional, cell-based; settings: dose 1-4 µM
[18] = test system: 4T1; assay: Anti-invasive activity in mouse 4T1 cells assessed as reduction in cell invasion incubated for 24 hrs by Transwell assay; assay type: functional, cell-based; settings: dose 3-6 µM
[19] = test system: MDA-MB-231; assay: Antimigratory activity against human MDA-MB-231 cells assessed as decrease in migration of tumor cells into scratching region at 8 to 10 uM incubated for 12 to 24 hrs by Wound healing assay; assay type: functional, cell-based; settings: dose 8-10 µM, time 12-24 hrs
[20] = test system: MDA-MB-231; assay: Induction of DNA damage in human MDA-MB-231 cells assessed as increase in gamma-H2AX focal expression at 2 to 4 uM by immunofluorescence staining assay; assay type: functional, cell-based; settings: dose 2-4 µM
[21] = test system: 4T1; assay: Anti-tumor activity against mouse 4T1 cells assessed as decrease in cell viability at 8 uM incubated for 24 hrs in presence of SB-431542 TGF-beta signaling inhibitor by MTT assay; assay type: functional, cell-based
[22] = test system: MDA-MB-231; assay: Reduction in PCNA protein expression in human MDA-MB-231 cells by Western blotting analysis; assay type: functional, cell-based; settings: dose 1-4 µM
[23] = test system: MDA-MB-231; assay: Induction of apoptosis in human MDA-MB-231 cells assessed as increase in apoptotic rate at 4 uM incubated for 24 hrs by Annexin V-FITC/PI double staining by flow cytometry; assay type: functional
[24] = test system: MDA-MB-231; assay: Induction of cell cycle arrest in human MDA-MB-231 cells assessed as accumulation of cells at G0/G1 phase at 4 uM measured after 24 hrs by PI staining by flow cytometry; assay type: functional
[25] = Cytotoxicity against human HFF cells assessed as cell viability by MTT assay; assay type: toxicity, cell-based
[26] = test system: 4T1; assay: Anti-proliferative activity against mouse 4T1 cells assessed as cell viability measured after 24 hrs by MTT assay; assay type: functional, cell-based; settings: dose 1-8 µM
[27] = test system: MDA-MB-231; assay: Induction of cell cycle arrest in human MDA-MB-231 cells assessed as accumulation of cells at G0/G1 phase measured after 24 hrs in presence of SB-431542 TGF-beta signaling inhibitor by PI staining by flow cytometry; assay type: functional, cell-based
[28] = test system: MDA-MB-231; assay: Induction of ROS production in human MDA-MB-231 cells at 1 to 4 uM incubated for 24 hrs by flow cytometry; assay type: functional, cell-based; settings: dose 1-4 µM
[29] = test system: MDA-MB-231; assay: Induction of cell cycle arrest in human MDA-MB-231 cells assessed as reduction in p-Rb expression at 1 to 4 uM measured after 24 hrs by immunoblotting assay; assay type: functional, cell-based; settings: dose 1-4 µM
[30] = test system: 4T1; assay: Induction of cell cycle arrest in mouse 4T1 cells assessed as accumulation of cells at G0/G1 phase at 6 uM measured after 24 hrs by PI staining by flow cytometry; assay type: functional

O=C1C[C@@H](c2ccccc2)Oc2cc(O)c([C@H](/C=C/C[C@@H](O)CCc3ccccc3)c3ccccc3)c(O)c21
active: Activity [1] | Activity [2] | Activity [4] | inhibition [5] | Activity [6] | Activity [7] Dose-Dependent Effect | Activity [8] | Activity [9] Dose-Dependent Effect | Activity [13] | Activity [14] Dose-Dependent Effect | Activity [17] | Activity [18] Dose-Dependent Effect | Activity [19] | Activity [20] | inhibition [22] Dose-Dependent Effect | Activity [26] Dose-Dependent Effect | Activity [28] | Activity [29]
2.82 µM: IC50 [11]
inactive: Activity [12] | Activity [16] | Activity [21] | Activity [27]
6.84%: Activity [15]
46.4%: Activity [23]
4.33 µM: IC50 [10]
5.91 µM: IC50 [25]
55.78%: Activity [3]
71.78%: Activity [24]
78.34%: Activity [30]
